Results on 26 compounds are retold here after patent US6683107B2, “Furans, benzofurans, and thiophenes useful in the treatment of insulin resistance and hyperglycemia” (Wyeth, priority 1998, dated 2004).

Series [1] has as its target T1, human recombinant PTP1B (hPTP1B) (Homo sapiens, UniProt P18031).
T1 construct: made in house
T1 sequence (P18031 1-435): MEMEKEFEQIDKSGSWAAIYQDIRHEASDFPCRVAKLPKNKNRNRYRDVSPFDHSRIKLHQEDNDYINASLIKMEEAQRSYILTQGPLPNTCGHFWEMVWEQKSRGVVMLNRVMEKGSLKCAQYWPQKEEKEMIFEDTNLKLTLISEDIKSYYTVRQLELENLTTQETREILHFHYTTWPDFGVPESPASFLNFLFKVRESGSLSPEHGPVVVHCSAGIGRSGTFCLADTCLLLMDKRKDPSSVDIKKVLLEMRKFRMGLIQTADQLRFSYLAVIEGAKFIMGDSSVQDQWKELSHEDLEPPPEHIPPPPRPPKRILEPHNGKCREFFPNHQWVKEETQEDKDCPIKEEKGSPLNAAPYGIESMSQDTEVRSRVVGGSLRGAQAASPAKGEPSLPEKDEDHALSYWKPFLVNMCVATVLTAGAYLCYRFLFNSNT
The series is described as follows: Inhibition of tri-phosphorylated insulin receptor dodecaphosphopeptide dephosphorylation by hPTP1B (malachite green phosphate detection). The note with it: for IC50: recombinant PTP1B, insulin receptor 1142-1153 triphosphopeptide substrate, 37° C., 30 min, pH 7.4. Format: biochemical.

Where a name gives a salt, the structure may show the parent alone.

Regarding “4-[4-(2-Butyl-benzofuran-3-carbonyl)-phenylsulfonyl]-2-hydroxy-benzoic acid [Example 16]”, the “% inhibition @ 0.5 μM” value in series [1] was 22.81% inhibition @ 0.5 μM.

Broadly, the melting point is the temperature, or range, at which the solid turns liquid. As to `CCc1oc2ccccc2c1C(=O)c1cc(-c2ccccc2)c(OS(=O)(=O)c2ccc(C(=O)O)c(O)c2)c(-c2ccccc2)c1` (as salt: sodium) [Example 6, 4-[5′-(2-Ethyl-benzofuran-3-carbonyl)-[1,1′: 3′,1″]terphenyl-2′-yloxysulfonyl-]2-hydroxy-benzoic acid sodium salt], the melting point lay in the range of 211 to 212 °C.

What is called IC50 is the concentration needed to halve the response being measured. Compound `CCc1oc2ccccc2c1C(=O)c1cc(Br)c(OS(=O)(=O)c2ccc(C(=O)O)c(O)c2)c(Br)c1` [Example 1, 4-[2,6-Dibromo-4-(2-ethyl-benzofuran-3-carbonyl)-phenoxysulfonyl]-2-hydroxy-benzoic acid] yielded a melting point of 173 °C. For the same compound, in series [1], the IC50 is 251 nM.

In the case of `CCCCc1oc2ccccc2c1C(=O)c1cc(-c2ccccc2)c(OS(=O)(=O)c2ccc(C(=O)O)c(O)c2)c(-c2ccccc2)c1` [Example 2, 4-[5′-(2-Butyl-benzofuran-3-carbonyl)-[1,1′; 3′1″]terphenyl-2′-yloxysulfonyl]-2-hydroxy-benzoic acid], the melting point was in the range of 190 to 197 °C. The IC50 in series [1] stood at 130 nM.

`CCc1oc2ccccc2c1C(=O)c1cc(C)c(OS(=O)(=O)c2ccc(C(=O)O)c(O)c2)c(C)c1` [Example 3, 4-[4-(2-Ethyl-benzofuran-3-carbonyl)-2,6-dimethyl-phenoxysulfonyl]-2-hydroxy-benzoic acid] yielded a melting point of 166 to 167 °C. In series [1], the IC50 amounted to 421 nM.

As to `CCc1oc2ccccc2c1C(=O)c1cc(C(C)C)c(OS(=O)(=O)c2ccc(C(=O)O)c(O)c2)c(C(C)C)c1` [Example 4, 4-[4-(2-Ethyl-benzofuran-3-carbonyl)-2,6-diisopropyl-phenoxysulfonyl]-2-hydroxy-benzoic acid], the melting point was in the range of 200 to 201 °C. Moreover, the 50% inhibitory concentration (IC50) in series [1] stood at 559 nM.

As to `Cc1oc(Cc2ccccc2)c(C(=O)c2cc(C(C)C)c(OS(=O)(=O)c3ccc(C(=O)O)c(O)c3)c(C(C)C)c2)c1C` [Example 5, 4-[4-(2-Benzyl-4,5-dimethyl-furan-3-carbonyl)-2,6-diisopropyl-phenoxysulfonyl]-2-hydroxy-benzoic acid], the melting point fell in the range of 142 to 143 °C. For the same compound, the IC50 in series [1] was 83 nM.

`CCc1oc2ccccc2c1C(=O)c1cc(-c2ccccc2)c(OS(=O)(=O)c2ccc(C(=O)O)c(O)c2)c(-c2ccccc2)c1` [Example 6, 4-[5′-(2-Ethyl-benzofuran-3-carbonyl)-[1,1′: 3′,1″]terphenyl-2′-yloxysulfonyl-]2-hydroxy-benzoic acid sodium salt]: in series [1], the IC50 was determined as 256 nM.

For the compound `Cc1cc(C(=O)c2c(Cc3ccccc3)oc(C)c2C)cc(-c2ccccc2)c1OS(=O)(=O)c1ccc(C(=O)[O-])c(O)c1.[Na+]` [Example 7, 4-[5-(2-Benzyl4,5-dimethyl-furan-3-carbonyl)-3-methyl-biphenyl-2-yloxysulfonyl]-2-hydroxy-benzoic acid sodium salt], the melting point was in the range of 187 to 190 °C. Further, the IC50 in series [1] amounted to 180 nM.

For the compound `Cc1oc(Cc2ccc3ccccc3c2)c(C(=O)c2cc(C(C)C)c(OS(=O)(=O)c3ccc(C(=O)O)c(O)c3)c(C(C)C)c2)c1C` [Example 8, 4-[4-(4,5-Dimethyl-2-naphthalen-2-ylmethyl-furan-3-carbonyl)-2,6-diisopropyl-phenoxysulfonyl]-2-hydroxy-benzoic acid], the melting point was 130 to 135 °C. In addition, the half-maximal inhibitory concentration (IC50) in series [1] turned out to be 75 nM.

For the compound `Cc1oc(Cc2ccccc2Br)c(C(=O)c2cc(C(C)C)c(OS(=O)(=O)c3ccc(C(=O)O)c(O)c3)c(C(C)C)c2)c1C` [Example 9, 4-{4-[2-(2-Bromo-benzyl)-4.5-dimethyl-furan-3-carbonyl]-2.6-diisopropyl-phenoxysulfonyl}-2-hydroxy-benzoic acid], the melting point is 90 to 95 °C. The IC50 in series [1] came out at 83 nM.

Compound `Cc1oc(Cc2cccc(Br)c2)c(C(=O)c2cc(C(C)C)c(OS(=O)(=O)c3ccc(C(=O)O)c(O)c3)c(C(C)C)c2)c1C` [Example 10, 4-{4-[2-(3-Bromo-benzyl)-4.5-dimethyl-furan-3-carbonyl]-2.6-diisopropylphenoxysulfonyl}-2-hydroxy-benzoic acid] registered a melting point of 148 °C. Also, in series [1], the concentration for half-maximal inhibition (IC50) came out at 226 nM.

Take `Cc1oc(Cc2ccc(Br)cc2)c(C(=O)c2cc(C(C)C)c(OS(=O)(=O)c3ccc(C(=O)O)c(O)c3)c(C(C)C)c2)c1C` [Example 11, 4-{4-[2-(4-Bromo-benzyl)4,5-dimethyl-fuiran-3-carbonyl]-2,6-diisopropyl-phenoxysulfonyl}-2-hydroxy-benzoic acid]: the melting point lay within 165 to 168 °C. Also, the IC50 in series [1] was found to be 99 nM.

In turn, `O=C(O)c1ccc(S(=O)(=O)Oc2ccc(CCc3c(Cc4ccccc4)sc4ccccc34)cc2)cc1O` [Example 12, 4-{4-[2-(2-Benzyl-benzo[b]thiophen-3-yl)thyl]-phenoxysulfonyl}-2-hydroxy-benzoic acid] had a melting point of 57 to 59 °C. The IC50 in series [1] worked out at 183 nM.

For the compound `Cc1oc(Cc2ccc(Br)cc2)c(C(=O)c2ccc(OS(=O)(=O)c3ccc(C(=O)O)c(O)c3)c(C3CCCC3)c2)c1C` [Example 13, 4-{4-[2-(4-Bromo-benzyl)4,5-dimethyl-furan-3-carbonyl]-2-cyclopentyl-phenoxysulfonyl}-2-hydroxy-benzoic acid], the melting point is 188 to 192 °C. For the same compound, the IC50 in series [1] was 267 nM.

In turn, `CCCCc1oc2ccccc2c1CCc1ccc(OS(=O)(=O)c2ccc(C(=O)O)c(O)c2)cc1` [Example 14, 4-{4-[2-(2-Butyl-benzofuran-3-yl)-ethyl]-phenoxysulfonyl}-2-hydroxy-benzoic acid] had a melting point of 93 to 95 °C. Also, the IC50 in series [1] is 60 nM.

Broadly, the inhibition is the percentage by which the read-out fell short of the control. On to `CCCCc1oc2ccccc2c1CNc1ccc(OS(=O)(=O)c2ccc(C(=O)O)c(O)c2)cc1` [Example 15, 4-{4-[(2-Butyl-benzofuran-3-ylmethyl)-amino]-phenoxysulfonyl}-2-hydroxy-benzoic acid], for which the melting point was in the range of 75 to 77 °C. In addition, the inhibition at 1 µM in series [1] (compound at 1.0 μM, percent of phosphatase control) came to 28.8%.

Compound `Cc1oc(Cc2ccccc2)c(C(=O)c2ccc(OS(=O)(=O)c3ccc(C(=O)O)c(O)c3)c(C3CCCC3)c2)c1C` [Example 17, 4-[4-(2-Benzyl-4,5-dimethyl-furan-3-carbonyl)-2-cyclopentyl-phenoxysulfonyl]-2-hydroxy-benzoic acid] showed a melting point of 80 to 85 °C. Also, the IC50 in series [1] turned out to be 643 nM.

In the case of `Cc1sc(Cc2ccccc2)c(C(=O)c2ccc(OS(=O)(=O)c3ccc(C(=O)O)c(O)c3)c(C3CCCC3)c2)c1C` [Example 18, 4-[4-(2-Benzyl-4,5-dimethyl-thiophene-3-carbonyl)-2-cyclopentyl-phenoxysulfonyll-]2-hydroxy-benzoic acid], the melting point is 70 to 77 °C. In addition, the half-inhibitory concentration (IC50) in series [1] was found to be 404 nM.

As for `CCc1cc(C(=O)c2c(Cc3ccccc3)oc(C)c2C)cc(CC)c1OS(=O)(=O)c1ccc(C(=O)O)c(O)c1` [Example 19, 4-[4-(2-Benzyl-4,5-dimethyl-furan-3-carbonyl)-2.6-diethyl-phenoxysulfonyl]-2-hydroxy-benzoic acid], the melting point fell in the range of 143 to 147 °C. For the same compound, the concentration for half-maximal inhibition (IC50) in series [1] was 633 nM.

For the compound `Cc1sc(Cc2ccc(Br)cc2)c(C(=O)c2ccc(OS(=O)(=O)c3ccc(C(=O)O)c(O)c3)c(C3CCCC3)c2)c1C` [Example 20, 4-{4-[2-(4-Bromo-benzyl)4.5-dimethyl-thiophene-3-carbonyl]-2-cyclopentylphenoxysulfonyl}-2-hydroxy-benzoic acid], the melting point fell in the range of 165 to 170 °C. For the same compound, the IC50 in series [1] came to 148 nM.

Consider `Cc1oc(Cc2ccccc2Br)c(C(=O)c2ccc(OS(=O)(=O)c3ccc(C(=O)O)c(O)c3)c(C3CCCC3)c2)c1C` [Example 21, 4-{4-[2-(2-Bromo-benzyl)4,5-dimethyl-furan-3-carbonyl]-2-cyclopentyl-phenoxysulfonyl}-2-hydroxy-benzoic acid], for which the melting point lay within 72 to 82 °C. The IC50 in series [1] was 371 nM.

`CC(=O)Oc1cc(S(=O)(=O)Oc2ccc(C(=O)c3c(Cc4ccccc4)oc(C)c3C)cc2C2CCCC2)ccc1C(=O)O` [Example 22, 2-Acetoxy4-[4-(2-benzyl-4,5-dimethyl-furan-3-carbonyl)-2-cyclopentyl-phenoxysulfonyl]-benzoic acid] yielded a melting point of 55 to 90 °C. Besides, in series [1], the IC50 turned out to be 508 nM.

`CC(=O)Oc1cc(S(=O)(=O)Oc2ccc(C(=O)c3c(Cc4ccccc4)sc(C)c3C)cc2C2CCCC2)ccc1C(=O)O` [Example 23, 2-Acetoxy4-[4-(2-benzyl-4,5-dimethyl-thiophene-3-carbonyl)-2-cyclopentyl-phenoxysulfonyl]-benzoic acid] gave a melting point of 94 to 96 °C. Further, the IC50 in series [1] came out at 439 nM.

Compound `CC(=O)Oc1cc(S(=O)(=O)Oc2ccc(C(=O)c3c(Cc4ccc(Br)cc4)sc(C)c3C)cc2C2CCCC2)ccc1C(=O)O` [Example 24, 2-Acetoxy-4-{4-[2-(4-Bromo-benzyl)-4,5-dimethyl-thiophene-3-carbonyl]-2-cyclopentyl-phenoxysulfonyl}-benzoic acid] showed a melting point of 113 to 114 °C. The IC50 in series [1] was determined as 254 nM.

With “Ammonium molybdate tetrahydrate [reference compound]”, the half-inhibitory concentration (IC50) in series [1] turned out to be 8700 nM.
